The results in this text go back to publication PMC13184988, “Enzymatic Bromination of Native Peptides for Late-Stage Structural Diversification via Suzuki–Miyaura Coupling” (ACS Chemical Biology, 2026).

“And” between values parts separate entries of the source, which are not always exact repeats. Equal values may be shown once. *1 amine or outer side, *2 acyl side, *3 side chain or, on linkers, in order; H or OH if unused. Where a SMILES comes first, the peptide text is derived from it. [ ]: non-standard residue; d: D form. X1 = O=C([C@H](Cc1c[nH]c2c(-c3cccc(C(F)(F)F)c3)cccc12)N[*:1])[*:2]; Trp(7-Br) = N[C@@H](Cc1c[nH]c2c(Br)cccc12)C(=O)O

The subject of experiment [1] is E. coli XL10. Kind of experiment: Minimal bactericidal concentration (Petri dish and spot assay). It is filed as cell-based. On the procedure:
0.5%. After incubation, the cells were washed 2 × 0.5 mg/mL heparin sulfate in PBS and then washed with 2 × FluoroBrite DMEM. FluoroBrite DMEM (200 µL) was added to each well for imaging. 1 drop of NucRed nuclear counterstain was added to visualize the cell nuclei. The cells were imaged using a Nikon microscope equipped with an Orca-Fire camera. Fiji was used for […]
. Fluorescence images were background corrected and individual nuclei were segmented based on a threshold intensity in the NucRed […]
Mueller-Hinton II cation-adjusted broth (10 mL) was inoculated with E. coli XL10 and incubated overnight with shaking at 37°C. The next day, the overnight culture was diluted to an OD600 of 0.5 […]
OD600 0.5 culture was further diluted 20-fold into fresh Mueller-Hinton II cation-adjusted broth […]
From each triplicate experiment, 100 µL of the 18-hour minimal inhibitory growth culture (see above) was plated on a petri dish containing Mueller-Hinton II cation-adjusted agar. […] The next morning, the bacterial growth on each triplicate plate was assessed. […]
Using a multichannel pipette, 3 μL from each triplicate of the 18-hour minimal inhibitory growth culture (see above) was spotted on a square petri dish containing Mueller-Hinton II cation-adjusted agar. […] The next morning, the bacterial growth on each triplicate plate was assessed. […]

Experiment [2] relates to 4V. It is filed as biochemical.
Experiment [3] relates to E. coli XL10. Briefly: Bacterial minimal inhibitory concentration, 18 h growth inhibition assay. It is filed as cell-based.

For `N=C(N)NCCC[C@H](NC(=O)[C@H](Cc1c[nH]c2ccccc12)NC(=O)[C@H](CCCNC(=N)N)NC(=O)[C@H](Cc1c[nH]c2ccccc12)NC(=O)[C@@H](N)CCCNC(=N)N)C(=O)N[C@@H](Cc1c[nH]c2c(-c3cccc(C(F)(F)F)c3)cccc12)C(N)=O` [CF3(−RW)3] (H-RWRWR[X1]-NH2; N-terminus assumed), the “fold decrease in MBC relative to the parent peptide (RW)3” value in experiment [1] came out at 4 fold.

Consider galanin, for which, in experiment [2], the “Average Percent Conversion” value was 21.379%; the “Percent Br2 Conversion (EIC)” value was determined as 0%; the “Percent Br Conversion (EIC)” value was 21.5543% and 21.2037%; the “Total Percent Conversion” value was 21.2037% and 21.5543%. Besides, the “4V-catalyzed conversion to the monobrominated product” value in experiment [2] (unmodified bioactive peptides, 1 mM peptide, 10 mM NaBr, 25 μM 4V, 25 mM HEPES pH 7.4, 24 h ambient, n = 3 independent experiments) came to 16.8 ± 0.2%.

Turning to `N=C(N)NCCC[C@H](NC(=O)[C@H](Cc1c[nH]c2ccccc12)NC(=O)[C@H](CCCNC(=N)N)NC(=O)[C@H](Cc1c[nH]c2ccccc12)NC(=O)[C@@H](N)CCCNC(=N)N)C(=O)N[C@@H](Cc1c[nH]c2c(Br)cccc12)C(N)=O` [Br-(RW)3] (H-RWRWR[Trp(7-Br)]-NH2; N-terminus assumed), in experiment [3], the “fold decrease in MIC relative to the parent peptide (RW)3” value is recorded as “approximately 4 fold”. Moreover, the “fold decrease in MBC relative to the parent peptide (RW)3” value in experiment [1] was “approximately 4 fold”.
